From patent US8722704B2, “Modulators of ATP-binding cassette-transporters” (Vertex Pharmaceuticals Incorporated, priority 2007, dated 2014)

target: T1, ΔF508-CFTR (Homo sapiens, UniProt P13569, DEL508-508); assay: Assays for detecting and measuring ΔF508-CFTR correction properties (membrane potential optical assay; Table 3 does not say which assay); format: cell-based; details: IC50/EC50 bins; NIH3T3 mouse fibroblasts stably expressing ΔF508-CFTR; read-out: Binned EC50
T1 construct: expressed in transfected cells
T1 sequence (P13569 with tags, fused parts or gaps DEL508-508): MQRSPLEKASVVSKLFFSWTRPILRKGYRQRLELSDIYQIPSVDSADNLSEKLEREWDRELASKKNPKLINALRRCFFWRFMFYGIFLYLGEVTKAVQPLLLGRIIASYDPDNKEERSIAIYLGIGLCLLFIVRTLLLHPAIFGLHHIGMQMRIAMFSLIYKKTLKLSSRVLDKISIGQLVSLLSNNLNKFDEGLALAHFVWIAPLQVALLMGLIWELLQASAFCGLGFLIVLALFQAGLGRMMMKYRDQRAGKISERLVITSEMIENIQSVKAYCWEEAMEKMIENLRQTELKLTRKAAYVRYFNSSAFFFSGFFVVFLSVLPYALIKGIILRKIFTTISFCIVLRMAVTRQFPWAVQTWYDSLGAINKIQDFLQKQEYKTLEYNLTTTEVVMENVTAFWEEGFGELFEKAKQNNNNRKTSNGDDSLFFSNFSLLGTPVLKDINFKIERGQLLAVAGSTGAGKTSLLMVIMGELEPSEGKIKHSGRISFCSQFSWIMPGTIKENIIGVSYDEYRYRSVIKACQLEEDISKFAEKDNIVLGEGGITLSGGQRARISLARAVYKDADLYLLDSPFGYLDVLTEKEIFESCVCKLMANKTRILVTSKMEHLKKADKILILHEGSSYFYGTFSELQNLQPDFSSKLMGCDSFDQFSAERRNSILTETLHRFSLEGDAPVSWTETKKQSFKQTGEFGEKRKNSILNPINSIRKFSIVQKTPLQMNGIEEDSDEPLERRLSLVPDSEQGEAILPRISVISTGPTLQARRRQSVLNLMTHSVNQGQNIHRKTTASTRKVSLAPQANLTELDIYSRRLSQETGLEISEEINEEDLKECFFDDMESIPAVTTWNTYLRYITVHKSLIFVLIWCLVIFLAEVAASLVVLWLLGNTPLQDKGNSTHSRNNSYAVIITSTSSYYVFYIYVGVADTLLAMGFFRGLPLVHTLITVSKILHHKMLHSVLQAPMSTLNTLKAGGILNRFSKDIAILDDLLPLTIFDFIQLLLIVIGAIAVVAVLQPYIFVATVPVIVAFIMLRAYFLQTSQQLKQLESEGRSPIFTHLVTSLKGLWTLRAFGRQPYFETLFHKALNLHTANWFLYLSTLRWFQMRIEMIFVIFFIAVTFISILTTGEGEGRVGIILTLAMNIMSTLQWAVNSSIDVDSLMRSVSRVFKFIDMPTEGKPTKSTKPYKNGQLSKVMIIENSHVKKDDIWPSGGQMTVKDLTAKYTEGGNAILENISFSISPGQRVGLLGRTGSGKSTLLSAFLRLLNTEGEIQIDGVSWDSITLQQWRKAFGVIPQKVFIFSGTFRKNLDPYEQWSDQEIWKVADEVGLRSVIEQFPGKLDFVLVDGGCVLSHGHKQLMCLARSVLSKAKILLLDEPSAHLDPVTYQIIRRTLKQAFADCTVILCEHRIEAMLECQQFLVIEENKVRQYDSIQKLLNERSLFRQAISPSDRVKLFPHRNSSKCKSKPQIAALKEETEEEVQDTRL
Description: The optical membrane potential assay utilized voltage-sensitive FRET sensors described by Gonzalez and Tsien (See Gonzalez, J. E. and R. Y. Tsien (1995) “Voltage sensing by fluorescence resonance energy transfer in single cells” Biophys J 69(4): 1272-80, and Gonzalez, J. E. and R. Y. Tsien (1997) “Improved indicators of cell membrane potential that use fluorescence resonance energy transfer” Chem Biol 4(4): 269-77) in combination with instrumentation for measuring fluorescence changes such as the Voltage/Ion Probe Reader (VIPR) (See Gonzalez, J. E., K. Oades, et al. (1999) “Cell-based assays and instrumentation for screening ion-channel targets” Drug Discov Today 4(9): 431-439).
These voltage sensitive assays are based on the change in fluorescence resonant energy transfer (FRET) between the membrane-soluble, voltage-sensitive dye, DiSBAC2(3), and a fluorescent phospholipid, CC2-DMPE, which is attached to the outer leaflet of the plasma membrane and acts as a FRET donor. Changes in membrane potential (Vm) cause the negatively charged DiSBAC2(3) to redistribute across the plasma membrane and the amount of energy transfer from CC2-DMPE changes accordingly. The changes in fluorescence emission were monitored using VIPR™ II, which is an integrated liquid handler and fluorescent detector designed to conduct cell-based screens in 96- or 384-well microtiter plates.
To identify small molecules that correct the trafficking defect associated with ΔF508-CFTR; a single-addition HTS assay format was developed. The cells were incubated in serum-free medium for 16 hrs at 37° C. in the presence or absence (negative control) of test compound. As a positive control, cells plated in 384-well plates were incubated for 16 hrs at 27° C. to “temperature-correct” ΔF508-CFTR. The cells were subsequently rinsed 3× with Krebs Ringers solution and loaded with the voltage-sensitive dyes. To activate ΔF508-CFTR, 10 μM forskolin and the CFTR potentiator, genistein (20 μM), were added along with Cl^−-free medium to each well. The addition of Cl^−-free medium promoted Cl^− efflux in response to ΔF508-CFTR activation and the resulting membrane depolarization was optically monitored using the FRET-based voltage-sensor dyes. […]
3. Solutions • Bath Solution #1: (in mM) NaCl 160, KCl 4.5, CaCl2 2, MgCl2 1, HEPES 10, pH 7.4 with NaOH. • Chloride-free bath solution: Chloride salts in Bath Solution #1 are substituted with gluconate salts. • CC2-DMPE: Prepared as a 10 mM stock solution in DMSO and stored at −20° C. • DiSBAC2(3): Prepared as a 10 mM stock in DMSO and stored at −20° C.
NIH3T3 mouse fibroblasts stably expressing ΔF508-CFTR are used for optical measurements of membrane potential. The cells are maintained at 37° C. in 5% CO2 and 90% humidity in Dulbecco's modified Eagle's medium supplemented with 2 mM glutamine, 10% fetal bovine serum, 1×NEAA, β-ME, 1×pen/strep, and 25 mM HEPES in 175 cm^2 culture flasks. For all optical assays, the cells were seeded at 30,000/well in 384-well matrigel-coated plates and cultured for 2 hrs at 37° C. before culturing at 27° C. for 24 hrs for the potentiator assay. For the correction assays, the cells are cultured at 27° C. or 37° C. with and without compounds for 16-24 hours.

| EC50 [µM] | SMILES |
| --- | --- |
| ≤ 2 | COc1ccc(C2(C(=O)Nc3cc4ccccc4c(N4CCOCC4)n3)CC2)cc1 [Compound 18, 1-(4-methoxyphenyl)-N-(1-morpholinoisoquinolin-3-yl)cyclopropanecarboxamide] |
| ≤ 2 | CN(C)CCOC(=O)c1cccc(-c2nc(NC(=O)C3(c4ccc5c(c4)OC(F)(F)O5)CC3)cc3ccccc23)c1 [Compound 19, 2-(Dimethylamino)ethyl 3-(3-(1-(2,2-difluorobenzo[d][1,3]dioxol-5-yl)cyclopropanecarboxamido)isoquinolin-1-yl)benzoate] |
| ≤ 2 | NC(=O)c1ccc(-c2nc(NC(=O)C3(c4ccc5c(c4)OC(F)(F)O5)CC3)cc3ccccc23)cc1 [Compound 6, 4-(3-(1-(2,2-Difluorobenzo[d][1,3]dioxol-5-yl)cyclopropanecarboxamido)isoquinolin-1-yl)benzamide] |
| ≤ 2 | NS(=O)(=O)c1ccc(-c2nc(NC(=O)C3(c4ccc5c(c4)OC(F)(F)O5)CC3)cc3ccccc23)cc1 [Compound 11, 1-(2,2-Difluorobenzo[d][1,3]dioxol-5-yl)-N-(1-(4-sulfamoylphenyl)isoquinolin-3-yl)cyclopropanecarboxamide] |
| ≤ 2 | COc1ccc(C2(C(=O)Nc3cc4ccccc4c(N4CCC(c5ccccc5)CC4)n3)CC2)cc1 [Compound 20, 1-(4-methoxyphenyl)-N-(1-(4-phenylpiperidin-1-yl)isoquinolin-3-yl)cyclopropanecarboxamide] |
| ≤ 2 | O=C(Nc1cc2ccccc2c(-c2ccc(=O)[nH]c2)n1)C1(c2ccc3c(c2)OC(F)(F)O3)CC1 [Compound 17, 1-(2,2-Difluorobenzo[d][1,3]dioxol-5-yl)-N-(1-(6-oxo-1,6-dihydropyridin-3-yl)isoquinolin-3-yl)cyclopropanecarboxamide] |
| ≤ 2 | O=C(Nc1cc2ccccc2c(-c2ccc3[nH]ncc3c2)n1)C1(c2ccc3c(c2)OC(F)(F)O3)CC1 [Compound 2, N-(1-(1H-Indazol-5-yl)isoquinolin-3-yl)-1-(2,2-difluorobenzo[d][1,3]dioxol-5-yl)cyclopropanecarboxamide] |
| ≤ 2 | NC(=O)c1cccc(-c2nc(NC(=O)C3(c4ccc5c(c4)OC(F)(F)O5)CC3)cc3ccccc23)c1 [Compound 22, 3-(3-(1-(2,2-Difluorobenzo[d][1,3]dioxol-5-yl)cyclopropanecarboxamido)isoquinolin-1-yl)benzamide] |
| ≤ 2 | O=C(Nc1cc2ccccc2c(-c2ccc3[nH]ccc3c2)n1)C1(c2ccc3c(c2)OC(F)(F)O3)CC1 [Compound 16, N-(1-(1H-Indol-5-yl)isoquinolin-3-yl)-1-(2,2-difluorobenzo[d][1,3]dioxol-5-yl)cyclopropanecarboxamide] |
| ≤ 2 | CNS(=O)(=O)c1ccc(-c2nc(NC(=O)C3(c4ccc5c(c4)OC(F)(F)O5)CC3)cc3ccccc23)c(C)c1 [Compound 26, 1-(2,2-difluorobenzo[d][1,3]dioxol-5-yl)-N-(1-(2-methyl-4-(N-methylsulfamoyl)phenyl)isoquinolin-3-yl)cyclopropanecarboxamide] |
| ≤ 2 | O=C(O)c1ccc(-c2nc(NC(=O)C3(c4ccc5c(c4)OC(F)(F)O5)CC3)cc3ccccc23)cc1 [Compound 5] |
| ≤ 2 | C[N+](C)(C)CCOC(=O)c1cccc(-c2nc(NC(=O)C3(c4ccc5c(c4)OC(F)(F)O5)CC3)cc3ccccc23)c1 [Compound 28, 2-(3-(3-(1-(2,2-Difluorobenzo[d][1,3]dioxol-5-yl)cyclopropanecarboxamido)isoquinolin-1-yl)benzoyloxy)-N,N,N-trimethylethanaminium chloride] |
| ≤ 2 | O=C1NCc2ccc(-c3nc(NC(=O)C4(c5ccc6c(c5)OC(F)(F)O6)CC4)cc4ccccc34)cc21 [Compound 15, 1-(2,2-Difluorobenzo[d][1,3]dioxol-5-yl)-N-(1-(3-oxoisoindolin-5-yl)isoquinolin-3-yl)cyclopropanecarboxamide] |
| ≤ 2 | CC(=O)NCc1ccc(-c2nc(NC(=O)C3(c4ccc5c(c4)OC(F)(F)O5)CC3)cc3ccccc23)cc1 [Compound 3, N-(1-(4-(Acetamidomethyl)phenyl)isoquinolin-3-yl)-1-(2,2-difluorobenzo[d][1,3]dioxol-5-yl)cyclopropanecarboxamide] |
| ≤ 2 | O=C(Nc1cc2ccccc2c(-c2ccc(CO)cc2)n1)C1(c2ccc3c(c2)OC(F)(F)O3)CC1 [Compound 27, 1-(2,2-Difluorobenzo[d][1,3]dioxol-5-yl)-N-(1-(4-(hydroxymethyl)phenyl)isoquinolin-3-yl)cyclopropanecarboxamide] |
| > 5 | CS(=O)(=O)NCc1ccc(-c2nc(NC(=O)C3(c4ccc5c(c4)OC(F)(F)O5)CC3)cc3ccccc23)cc1 [Compound 1, 1-(2,2-Difluorobenzo[d][1,3]dioxol-5-yl)-N-(1-(4-(methylsulfonamidomethyl)phenyl)isoquinolin-3-yl)cyclopropanecarboxamide] |
| ≤ 2 | COc1ccc(C2(C(=O)Nc3cc4ccccc4c(N4CCNC(=O)C4)n3)CC2)cc1 [Compound 21] |
| ≤ 2 | O=C(O)c1cccc(-c2nc(NC(=O)C3(c4ccc5c(c4)OC(F)(F)O5)CC3)cc3ccccc23)c1 [Compound 8] |
| ≤ 2 | CS(=O)(=O)NCc1cccc(-c2nc(NC(=O)C3(c4ccc5c(c4)OC(F)(F)O5)CC3)cc3ccccc23)c1 [Compound 9, 1-(2,2-Difluorobenzo[d][1,3]dioxol-5-yl)-N-(1-(3-(methylsulfonamidomethyl)phenyl)isoquinolin-3-yl)cyclopropanecarboxamide] |
| ≤ 2 | COc1ccc(C2(C(=O)Nc3cc4ccccc4c(N4CCCCC4)n3)CC2)cc1 [Compound 23, 1-(4-methoxyphenyl)-N-(1-(piperidin-1-yl)isoquinolin-3-yl)cyclopropanecarboxamide] |
| ≤ 2 | COc1ccc(C2(C(=O)Nc3cc4ccccc4c(N4CCN(C)CC4)n3)CC2)cc1 [Compound 12] |
| ≤ 2 | NS(=O)(=O)c1cccc(-c2nc(NC(=O)C3(c4ccc5c(c4)OC(F)(F)O5)CC3)cc3ccccc23)c1 [Compound 13, 1-(2,2-Difluorobenzo[d][1,3]dioxol-5-yl)-N-(1-(3-sulfamoylphenyl)isoquinolin-3-yl)cyclopropanecarboxamide] |
| ≤ 2 | Cc1cc2cc(-c3nc(NC(=O)C4(c5ccc6c(c5)OC(F)(F)O6)CC4)cc4ccccc34)ccc2[nH]1 [Compound 7, 1-(2,2-difluorobenzo[d][1,3]dioxol-5-yl)-N-(1-(2-methyl-1H-indol-5-yl)isoquinolin-3-yl)cyclopropanecarboxamide] |
| ≤ 2 | CC(=O)NCc1cccc(-c2nc(NC(=O)C3(c4ccc5c(c4)OC(F)(F)O5)CC3)cc3ccccc23)c1 [Compound 10, N-(1-(3-(Acetamidomethyl)phenyl)isoquinolin-3-yl)-1-(2,2-difluorobenzo[d][1,3]dioxol-5-yl)cyclopropanecarboxamide] |
| ≤ 2 | COc1ccc(C2(C(=O)Nc3cc4ccccc4c(N4CCN(c5ccccc5)C(=O)C4)n3)CC2)cc1 [Compound 14, 1-(4-methoxyphenyl)-N-(1-(3-oxo-4-phenylpiperazin-1-yl)isoquinolin-3-yl)cyclopropanecarboxamide] |
| ≤ 2 | COc1ccc(-c2nc(NC(=O)C3(c4ccc5c(c4)OC(F)(F)O5)CC3)cc3ccccc23)cn1 [Compound 25, 1-(2,2-Difluorobenzo[d][1,3]dioxol-5-yl)-N-(1-(6-methoxypyridin-3-yl)isoquinolin-3-yl)cyclopropanecarboxamide] |
| ≤ 2 | O=C(Nc1cc2ccccc2c(-c2ccccc2)n1)C1(c2ccc3c(c2)OC(F)(F)O3)CC1 [Compound 4, 1-(2,2-difluorobenzo[d][1,3]dioxol-5-yl)-N-(1-phenylisoquinolin-3-yl)cyclopropanecarboxamide] |
